Key:
[1] = tested on: MCF-7 (human breast cancer cells); assay: MTT cancer cell growth inhibition; type: cell-based; conditions: MCF7, 72 h
Outline: (§1)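 1500 cells/well, DMEM or 1640 + 10% FBS, overnight 37 °C/5% CO2; cpd 10^−5–10^−10 M final, triplicate, 72 h; 0.1% DMSO vehicle; MTT 4 h; DMSO solubilisation; A570; % survival.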

[2] = tested on: U937 (human leukemia cells); assay: MTT cancer cell growth inhibition; type: cell-based; conditions: U-937, 72 h
Outline: as §1

[3] = tested on: HT1080 (human fibrosarcoma cells); assay: MTT cancer cell growth inhibition; type: cell-based; conditions: HT-1080, 72 h
Outline: as §1

PANC-1 = assay: MTT cancer cell growth inhibition; type: cell-based; conditions: Homo sapiens, 72 h
Outline: as §1

[4] = tested on: A549 (human lung cancer cells); assay: MTT cancer cell growth inhibition; type: cell-based; conditions: 72 h
Outline: as §1

[5] = tested on: BGC-823 (human gastric cancer cells); assay: MTT cancer cell growth inhibition; type: cell-based; conditions: 72 h, read-out: GI50 BGC823
Outline: as §1

[6] = tested on: Hela (human cervical cancer cells); assay: MTT cancer cell growth inhibition; type: cell-based; conditions: 72 h
Outline: as §1

[7] = tested on: human colon cancer HCT-116; assay: Subcutaneously transplanted tumors in nude mice; type: in vivo, BALB/cA nude mice; parameters: key to RTV (mean ± SD): RTV = Vt/V0, tumor volume at time t over volume at d0; conditions: for 1-T/C tumor inhibition rate / TV (mean ± SD) d0 / Weight d0 / RTV (mean ± SD) / TV (mean ± SD) d21: Table 1.1; for 1-T/C tumor inhibition rate: after three weeks; for RTV (mean ± SD) / TV (mean ± SD) d21: d21; for Tumor Volume TV (mean ± SD) d 0 / Tumor Volume TV (mean ± SD) d 3 / Tumor Volume TV (mean ± SD) d 7 / Tumor Volume TV (mean ± SD) d 10 / Tumor Volume TV (mean ± SD) d 14 / Tumor Volume TV (mean ± SD) d 17: Table 1.2; for Weight (mean ± SD) d 0 / Weight (mean ± SD) d 3 / Weight (mean ± SD) d 7 / Weight (mean ± SD) d 10 / Weight (mean ± SD) d 14 / Weight (mean ± SD) d 17 / Weight (mean ± SD) d 21: Table 1.3
Method: The solvents are isopropanol and anhydrous ethanol (mixed in the volume ratio of 1:1). The test sample is dissolved with solvents and physiological saline in the ratio of 1:1 for use, and the above solvents and physiological saline are dissolved in the ratio of 1:1 as a negative control.
The number of mice in each group: 12 mice in the negative control group, and 6 mice in the administration group.
The cell strains are inoculated to the right axilla subcutaneous layer of the nude mice, with 5×10^6 per mouse. After formed, the transplanted tumors are passed down two generations in the nude mice and then used.
Tumor tissues in the vigorous growth period are cut into about 1.5 mm^3, and inoculated to the right axilla subcutaneous layer of the nude mice under aseptic conditions. For the subcutaneously transplanted tumors of the nude mice, the diameter of the transplanted tumors is measured by a vernier caliper. The mice are randomly grouped after the tumors grow to 100-200 mm^3. […] The diameter of the transplanted tumors is measured twice per week in the whole experimental process, and meanwhile the weight of the mice is weighed. The calculation formula of tumor volume (TV) is TV=½×a×b^2, where a and b represent length and width, respectively.
The relative tumor volume (RTV) is calculated according to the measured results, with the following calculation formula: RTV=Vt/V0, where V0 is the tumor volume obtained by measurement during administration in different cages (i.e., d0), Vt is the tumor volume obtained by measurement at each time. […] (Wc−WT)Wc×100%, where Wc is the tumor weight of the control group, and WT is the tumor weight of the treatment group.

C/C=C1\NC(=O)c2csc(n2)CNC(=O)C[C@@H](/C=C/CCSC(=O)CCCCCCC)OC(=O)[C@H](C(C)C)NC1=O [Compound 1-3]
GI50 [1]: 1200 nM | GI50 [2]: 500 nM | GI50 [3]: 4000 nM | GI50 (PANC-1): 6000 nM | GI50 [4]: 10000 nM | GI50 [5]: 60 nM | GI50 [6]: 1000 nM | 1-T/C tumor inhibition rate ([7]; 5 mg/kg q3d × 3w iv): 7.92% | TV (mean ± SD) d0 ([7]; 5 mg/kg q3d × 3w iv): 122 ± 25 mm^3 | Weight d0 ([7]; 5 mg/kg q3d × 3w iv): 16.7 g | RTV (mean ± SD) ([7]; 5 mg/kg q3d × 3w iv): 9.56 ± 2.44 | TV (mean ± SD) d21 ([7]; 5 mg/kg q3d × 3w iv): 1166 ± 201 mm^3 | 1-T/C tumor inhibition rate ([7]; 10 mg/kg q3d × 3w iv): 39.71% | TV (mean ± SD) d0 ([7]; 10 mg/kg q3d × 3w iv): 120 ± 19 mm^3 | Weight d0 ([7]; 10 mg/kg q3d × 3w iv): 17.5 g | RTV (mean ± SD) ([7]; 10 mg/kg q3d × 3w iv): 6.26 ± 3.33 | TV (mean ± SD) d21 ([7]; 10 mg/kg q3d × 3w iv): 751 ± 244 mm^3 | 1-T/C tumor inhibition rate ([7]; 20 mg/kg q3d × 3w iv): 70.26% | TV (mean ± SD) d0 ([7]; 20 mg/kg q3d × 3w iv): 116 ± 26 mm^3 | Weight d0 ([7]; 20 mg/kg q3d × 3w iv): 16.7 g | RTV (mean ± SD) ([7]; 20 mg/kg q3d × 3w iv): 3.09 ± 3.14 | TV (mean ± SD) d21 ([7]; 20 mg/kg q3d × 3w iv): 358 ± 201 mm^3 | Tumor Volume TV (mean ± SD) d 0 ([7]; 5 mg/kg): 122 ± 25 mm^3 | Tumor Volume TV (mean ± SD) d 3 ([7]; 5 mg/kg): 179 ± 15 mm^3 | Tumor Volume TV (mean ± SD) d 7 ([7]; 5 mg/kg): 343 ± 58 mm^3 | Tumor Volume TV (mean ± SD) d 10 ([7]; 5 mg/kg): 454 ± 41 mm^3 | Tumor Volume TV (mean ± SD) d 14 ([7]; 5 mg/kg): 605 ± 60 mm^3 | Tumor Volume TV (mean ± SD) d 17 ([7]; 5 mg/kg): 895 ± 138 mm^3 | Tumor Volume TV (mean ± SD) d 0 ([7]; 10 mg/kg): 120 ± 19 mm^3 | Tumor Volume TV (mean ± SD) d 3 ([7]; 10 mg/kg): 163 ± 38 mm^3 | Tumor Volume TV (mean ± SD) d 7 ([7]; 10 mg/kg): 217 ± 67 mm^3 | Tumor Volume TV (mean ± SD) d 10 ([7]; 10 mg/kg): 302 ± 105 mm^3 | Tumor Volume TV (mean ± SD) d 14 ([7]; 10 mg/kg): 408 ± 70 mm^3 | Tumor Volume TV (mean ± SD) d 17 ([7]; 10 mg/kg): 571 ± 175 mm^3 | Tumor Volume TV (mean ± SD) d 0 ([7]; 20 mg/kg): 116 ± 26 mm^3 | Tumor Volume TV (mean ± SD) d 3 ([7]; 20 mg/kg): 129 ± 10 mm^3 | Tumor Volume TV (mean ± SD) d 7 ([7]; 20 mg/kg): 155 ± 28 mm^3 | Tumor Volume TV (mean ± SD) d 10 ([7]; 20 mg/kg): 193 ± 68 mm^3 | Tumor Volume TV (mean ± SD) d 14 ([7]; 20 mg/kg): 245 ± 117 mm^3 | Tumor Volume TV (mean ± SD) d 17 ([7]; 20 mg/kg): 275 ± 112 mm^3 | Weight (mean ± SD) d 0 ([7]; 5 mg/kg): 16.7 ± 0.6 g | Weight (mean ± SD) d 3 ([7]; 5 mg/kg): 15.9 ± 0.7 g | Weight (mean ± SD) d 7 ([7]; 5 mg/kg): 15.0 ± 0.9 g | Weight (mean ± SD) d 10 ([7]; 5 mg/kg): 14.5 ± 1.2 g | Weight (mean ± SD) d 14 ([7]; 5 mg/kg): 14.1 ± 1.0 g | Weight (mean ± SD) d 17 ([7]; 5 mg/kg): 13.5 ± 0.9 g | Weight (mean ± SD) d 21 ([7]; 5 mg/kg): 13.3 ± 1.0 g | Weight (mean ± SD) d 0 ([7]; 10 mg/kg): 17.5 ± 1.6 g | Weight (mean ± SD) d 3 ([7]; 10 mg/kg): 16.6 ± 1.9 g | Weight (mean ± SD) d 7 ([7]; 10 mg/kg): 15.8 ± 2.0 g | Weight (mean ± SD) d 10 ([7]; 10 mg/kg): 15.7 ± 2.0 g | Weight (mean ± SD) d 14 ([7]; 10 mg/kg): 14.8 ± 1.8 g | Weight (mean ± SD) d 17 ([7]; 10 mg/kg): 14.2 ± 1.7 g | Weight (mean ± SD) d 21 ([7]; 10 mg/kg): 13.5 ± 1.6 g | Weight (mean ± SD) d 0 ([7]; 20 mg/kg): 16.7 ± 0.5 g | Weight (mean ± SD) d 3 ([7]; 20 mg/kg): 16.1 ± 0.4 g | Weight (mean ± SD) d 7 ([7]; 20 mg/kg): 14.6 ± 0.4 g | Weight (mean ± SD) d 10 ([7]; 20 mg/kg): 14.7 ± 0.4 g | Weight (mean ± SD) d 14 ([7]; 20 mg/kg): 13.7 ± 0.3 g | Weight (mean ± SD) d 17 ([7]; 20 mg/kg): 13.0 ± 0.3 g | Weight (mean ± SD) d 21 ([7]; 20 mg/kg): 13.1 ± 0.6 g

From US8933195B2, “Histone deacetylase inhibitors and synthetic method thereof and use thereof in manufacture of medicaments” (Nanjing Yoko Biomedical R & D Ltd., priority 2011, dated 2015)
